This passage reports EC50 results from US11116760B2 (Gilead Sciences, Inc., priority 2018, dated 2021).

Sequence of α4β7 integrin (P13612 34-1032): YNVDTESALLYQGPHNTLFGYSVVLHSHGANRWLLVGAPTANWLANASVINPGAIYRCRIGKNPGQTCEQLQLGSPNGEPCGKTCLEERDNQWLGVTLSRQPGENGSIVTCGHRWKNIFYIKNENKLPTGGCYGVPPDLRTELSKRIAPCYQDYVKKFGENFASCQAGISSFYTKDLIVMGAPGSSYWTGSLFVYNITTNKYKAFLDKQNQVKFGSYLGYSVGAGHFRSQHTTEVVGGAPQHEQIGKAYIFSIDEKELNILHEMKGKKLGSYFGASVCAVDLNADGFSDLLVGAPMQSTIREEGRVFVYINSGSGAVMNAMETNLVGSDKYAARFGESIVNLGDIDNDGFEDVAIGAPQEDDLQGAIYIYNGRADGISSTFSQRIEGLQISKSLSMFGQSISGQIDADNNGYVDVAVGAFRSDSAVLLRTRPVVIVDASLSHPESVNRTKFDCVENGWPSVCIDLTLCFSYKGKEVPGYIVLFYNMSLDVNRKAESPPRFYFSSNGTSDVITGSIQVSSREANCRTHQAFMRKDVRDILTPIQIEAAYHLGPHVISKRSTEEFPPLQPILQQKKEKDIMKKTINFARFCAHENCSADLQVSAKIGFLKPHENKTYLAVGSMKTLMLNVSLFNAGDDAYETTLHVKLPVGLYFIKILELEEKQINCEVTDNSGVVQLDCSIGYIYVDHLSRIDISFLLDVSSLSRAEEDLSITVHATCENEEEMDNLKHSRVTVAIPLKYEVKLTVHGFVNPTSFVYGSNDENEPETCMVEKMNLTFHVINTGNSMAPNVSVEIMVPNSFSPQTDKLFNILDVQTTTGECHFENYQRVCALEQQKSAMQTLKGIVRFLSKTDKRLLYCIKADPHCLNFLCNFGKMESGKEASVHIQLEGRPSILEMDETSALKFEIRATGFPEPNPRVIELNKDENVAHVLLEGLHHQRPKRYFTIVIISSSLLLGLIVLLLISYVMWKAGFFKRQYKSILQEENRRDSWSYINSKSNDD
Sequence of α4β7 integrin (P26010 20-798): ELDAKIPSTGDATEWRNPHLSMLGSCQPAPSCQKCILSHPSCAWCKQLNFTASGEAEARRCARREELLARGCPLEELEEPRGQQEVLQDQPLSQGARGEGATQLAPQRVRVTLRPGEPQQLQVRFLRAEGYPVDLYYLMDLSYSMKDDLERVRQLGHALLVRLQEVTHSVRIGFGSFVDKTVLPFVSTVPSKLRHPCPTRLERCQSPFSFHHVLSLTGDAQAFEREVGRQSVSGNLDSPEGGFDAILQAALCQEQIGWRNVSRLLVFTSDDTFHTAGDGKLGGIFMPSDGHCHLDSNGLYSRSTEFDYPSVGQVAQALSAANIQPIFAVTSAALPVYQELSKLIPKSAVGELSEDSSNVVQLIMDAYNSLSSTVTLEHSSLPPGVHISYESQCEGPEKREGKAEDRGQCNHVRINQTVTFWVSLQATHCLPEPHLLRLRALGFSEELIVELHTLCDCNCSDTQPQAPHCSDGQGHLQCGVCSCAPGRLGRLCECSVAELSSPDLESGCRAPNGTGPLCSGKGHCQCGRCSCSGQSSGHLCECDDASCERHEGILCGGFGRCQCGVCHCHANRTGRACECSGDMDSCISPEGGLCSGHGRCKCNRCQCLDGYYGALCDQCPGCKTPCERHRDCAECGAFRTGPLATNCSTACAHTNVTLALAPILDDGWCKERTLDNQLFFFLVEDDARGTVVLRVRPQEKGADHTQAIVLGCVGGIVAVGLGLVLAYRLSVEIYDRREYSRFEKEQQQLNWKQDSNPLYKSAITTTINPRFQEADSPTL

The first experiment addresses α4β7 integrin (Homo sapiens (Human), UniProt P13612+P26010). Nature of the experiment: α4β7 Integrin Cell Capture Assay. In kind it is cell-based. The settings on record: RPMI8866 cells captured on MadCAM-1 extracellular domain-coated plate.
In turn, `Cc1cc(N2CCOC[C@@H]2C(F)(F)F)cc(F)c1C(=O)N[C@@H](Cc1ccc(-c2cnc(C)n(C)c2=O)c2ncccc12)C(=O)O` [Example 467] had an EC50 of 0.238 nM.
Still for that read-out and setting: the figure for `Cc1cc(N2CCOC[C@@H]2C(F)(F)F)cc(F)c1C(=O)N[C@@H](Cc1ccc(-c2cc(C)c(C)n(C)c2=O)c2ncccc12)C(=O)O` [Example 455] is 0.211 nM; for `Cc1cc(N2CCOC[C@@H]2C(F)(F)F)cc(F)c1C(=O)N[C@@H](Cc1ccc(-n2c(=O)c3ccncc3n(C)c2=O)c2ncccc12)C(=O)O` [Example 356, (S)-2-(2-fluoro-6-methyl-4-((R)-3-(trifluoromethyl)morpholino)benzamido)-3-(8-(1-methyl-2,4-dioxo-1,4-dihydropyrido[3,4-d]pyrimidin-3(2H)-yl)quinolin-5-yl)propanoic acid] it is 0.05 nM.
Still for that read-out and setting: the result for `Cc1cc(N2CCOC[C@@H]2C(F)(F)F)cc(F)c1C(=O)N[C@@H](Cc1ccc(-n2c(=O)c3ccncc3n(C)c2=O)c2ncc(F)cc12)C(=O)O` [Example 426] reads 0.096 nM; that for `CC[C@@H](Nc1cc(F)c(C(=O)N[C@@H](Cc2ccc(-c3cc(OC)cn(C)c3=O)c3ncccc23)C(=O)O)c(F)c1)C(F)(F)F` [Example 481], 1.48 nM; that for `Cc1cc(N2CCOC[C@@H]2C(F)(F)F)cc(F)c1C(=O)N[C@@H](Cc1ccc(-c2c(C(F)(F)F)nc(C)n(C)c2=O)c2ncccc12)C(=O)O` [Example 458], 0.09 nM.

Staying with this experiment, now noted: Table 1; capture of α4β7 expressing RPM18866 cells on MadCAM-1 extracellular domain-coated plate.
`COc1cc(Cl)c(Cl)cc1-c1ccc(C[C@H](NC(=O)c2c(F)cccc2F)C(=O)O)c2cccnc12` [Example 5, (S)-3-(8-(4,5-dichloro-2-methoxyphenyl)quinolin-5-yl)-2-(2,6-difluorobenzamido)propanoic acid] returned an EC50 of 17.4 nM.
Still for that read-out and setting: the result for `N#Cc1ccccc1-c1ccc(C[C@H](NC(=O)c2c(F)cc(NS(=O)(=O)c3ccc(-c4ccnc(F)c4)cc3)cc2F)C(=O)O)c2cccnc12` [Example 59, (S)-3-(8-(2-cyanophenyl)quinolin-5-yl)-2-(2,6-difluoro-4-((4-(2-fluoropyridin-4-yl)phenyl)sulfonamido)benzamido)propanoic acid] reads 3.2 nM.
`CC[C@@H](Nc1cc(F)c(C(=O)N[C@@H](Cc2ccc(-c3c(C(F)(F)F)cc(C)n(C)c3=O)c3ncccc23)C(=O)O)c(F)c1)C(F)(F)F` [Example 91, (S)-2-(2,6-difluoro-4-(((R)-1,1,1-trifluorobutan-2-yl)amino)benzamido)-3-(8-(1,6-dimethyl-2-oxo-4-(trifluoromethyl)-1,2-dihydropyridin-3-yl)quinolin-5-yl)propanoic acid]: the 50% effective concentration (EC50) worked out at 0.3 nM.
`CC(C)(O)C#Cc1cc(Cl)c(C(=O)N[C@@H](Cc2ccc(-c3ccc(C#N)cc3Cl)c3ncccc23)C(=O)O)c(Cl)c1` [Example 29, (S)-3-(8-(2-chloro-4-cyanophenyl)quinolin-5-yl)-2-(2,6-dichloro-4-(3-hydroxy-3-methylbut-1-yn-1-yl)benzamido)propanoic acid] came in with an EC50 of 68.7 nM.
“(S)-3-(8-(2-chloro-4-cyanophenyl)quinolin-5-yl)-2-(2,6-difluoro-4-((phenoxycarbonyl)amino)benzamido)propanoic acid [Example 41]” returned an EC50 of 7.7 nM.
Consider `Cc1cc(N2CCOC[C@@H]2C(F)(F)F)cc(F)c1C(=O)N[C@@H](Cc1ccc(-c2c(C(F)(F)F)cc(C)n(C)c2=O)c2ncccc12)C(=O)O` [Example 141, (S)-3-(8-(1,6-dimethyl-2-oxo-4-(trifluoromethyl)-1,2-dihydropyridin-3-yl)quinolin-5-yl)-2-(2-fluoro-6-methyl-4-((R)-3-(trifluoromethyl)morpholino)benzamido)propanoic acid], for which the EC50 came to 0.1 nM.
On the same count and under the same terms, the result for `CN(C)c1cccnc1-c1ccc(C[C@H](NC(=O)c2c(F)cc(N3CCOC[C@@H]3C(F)(F)F)cc2F)C(=O)O)c2cccnc12` [Example 101, (S)-2-(2,6-difluoro-4-((R)-3-(trifluoromethyl)morpholino)benzamido)-3-(8-(3-(dimethylamino)pyridin-2-yl)quinolin-5-yl)propanoic acid] reads 4.1 nM; that for `N#Cc1ccc(-c2ccc(C[C@H](NC(=O)c3c(F)cc(NS(=O)(=O)c4ccccc4)cc3F)C(=O)O)c3cccnc23)c(Cl)c1` [Example 46, (S)-3-(8-(2-chloro-4-cyanophenyl)quinolin-5-yl)-2-(2,6-difluoro-4-(phenylsulfonamido)benzamido)propanoic acid], 20 nM; that for `CN(C)c1ccnc(-c2ccc(C[C@H](NC(=O)c3c(F)cc(N4CCOC[C@@H]4C(F)(F)F)cc3F)C(=O)O)c3cccnc23)c1C(F)(F)F` [Example 105, (S)-2-(2,6-difluoro-4-((R)-3-(trifluoromethyl)morpholino)benzamido)-3-(8-(4-(dimethylamino)-3-(trifluoromethyl)pyridin-2-yl)quinolin-5-yl)propanoic acid], 4.1 nM.
For `N#Cc1ccc(-c2ccc(C[C@H](NC(=O)c3c(F)cc(N[C@H](C4CC4)C(F)(F)F)cc3F)C(=O)O)c3cccnc23)c(Cl)c1` [Example 90], the midpoint of the response, the EC50, lay at 11.3 nM.
Same read-out and setting: the result for `N#Cc1ccc(-c2ccc(C[C@H](NC(=O)c3c(F)cc(C(=O)NCC(F)(F)F)cc3F)C(=O)O)c3cccnc23)c(Cl)c1` [Example 28, (S)-3-(8-(2-chloro-4-cyanophenyl)quinolin-5-yl)-2-(2,6-difluoro-4-((2,2,2-trifluoroethyl)carbamoyl)benzamido)propanoic acid] reads 33.5 nM; that for `N#Cc1ccc(-c2ccc(C[C@H](NC(=O)c3c(F)cc(N4CCC[C@@H]4C(F)(F)F)cc3F)C(=O)O)c3cccnc23)c(Cl)c1` [Example 76, (S)-3-(8-(2-chloro-4-cyanophenyl)quinolin-5-yl)-2-(2,6-difluoro-4-((R)-2-(trifluoromethyl)pyrrolidin-1-yl)benzamido)propanoic acid], 78.4 nM; that for `CC[C@@H](Nc1cc(C)c(C(=O)N[C@@H](Cc2ccc(-c3c(C(F)(F)F)cc(C)n(C)c3=O)c3ncccc23)C(=O)O)c(F)c1)C(F)(F)F` [Example 142, (S)-3-(8-(1,6-dimethyl-2-oxo-4-(trifluoromethyl)-1,2-dihydropyridin-3-yl)quinolin-5-yl)-2-(2-fluoro-6-methyl-4-(((R)-1,1,1-trifluorobutan-2-yl)amino)benzamido)propanoic acid], 0.2 nM.
As for `Cc1cc(C(F)(F)F)c(-c2ccc(C[C@H](NC(=O)c3c(F)cc(N4CCOC[C@@H]4CC(F)F)cc3F)C(=O)O)c3cccnc23)c(=O)n1C` [Example 130, (S)-2-(4-((S)-3-(2,2-difluoroethyl)morpholino)-2,6-difluorobenzamido)-3-(8-(1,6-dimethyl-2-oxo-4-(trifluoromethyl)-1,2-dihydropyridin-3-yl)quinolin-5-yl)propanoic acid], the EC50 was determined as 0.5 nM.

The same experiment, now with this note: Table 2; capture of α4β7 expressing RPM18866 cells on MadCAM-1 extracellular domain-coated plate.
For the molecule `CC[C@@H](Nc1cc(F)c(C(=O)N[C@@H](Cc2ccc(-c3ncc(C)cc3Cl)c3ncccc23)C(=O)O)c(F)c1)C(F)(F)F` [Example 327], the EC50 was determined as 19.3 nM.
`N#Cc1ccc(-c2ccc(C[C@H](NC(=O)c3c(F)cc(N[C@@H]4CCCCC4(F)F)cc3F)C(=O)O)c3cccnc23)c(Cl)c1` [Example 170]: the EC50 came to 93.7 nM.
The molecule `Cc1cc(C(F)(F)F)c(-c2ccc(C[C@H](NC(=O)c3c(F)cc(N4CC[C@H]4C(F)(F)F)cc3F)C(=O)O)c3cccnc23)c(=O)n1C` [Example 298] gave an EC50 of 7.9 nM.
Same read-out and setting: the figure for `O=C(N[C@@H](Cc1ccc(-c2nccc(OC3CC3)c2C(F)(F)F)c2ncccc12)C(=O)O)c1c(F)cc(N2CCOC[C@@H]2C(F)(F)F)cc1F` [Example 233] is 2.2 nM; for `N#Cc1ccc(-c2ccc(C[C@H](NC(=O)c3c(Cl)cc4[nH]c(Cc5ccccc5)cc4c3Cl)C(=O)O)c3cccnc23)c(Cl)c1` [Example 240] it is 79.2 nM.
Molecule `CC[C@@H](Nc1cc(F)c(C(=O)N[C@@H](Cc2ccc(-c3cn(C)c(=O)cc3C(F)(F)F)c3ncccc23)C(=O)O)c(F)c1)C(F)(F)F` [Example 296] returned an EC50 of 7.7 nM.
Same read-out and setting: the figure for `CC[C@@H](Nc1cc(F)c(C(=O)N[C@@H](Cc2ccc(-c3c(C(F)(F)F)c4cc(N(C)C)ccc4n(C)c3=O)c3ncccc23)C(=O)O)c(F)c1)C(F)(F)F` (atropisomer, axis not shown) [Example 302] is 9.4 nM.
On the same count and under the same terms, the result for `Cc1cc(C(F)(F)F)c(-c2ccc(C[C@H](NC(=O)c3c(F)cc(N4CCOC[C@@H]4C(F)(F)F)cc3F)C(=O)O)c3cc(F)cnc23)c(=O)n1C` [Example 159] reads 0.3 nM; that for `O=C(N[C@@H](Cc1ccc(-c2ncc3ccccc3c2Br)c2ncccc12)C(=O)O)c1c(Cl)cccc1Cl` [Example 303], 9.4 nM.
Still for that read-out and setting: the result for `Cc1cc(C(F)(F)F)c(-c2ccc(C[C@H](NC(=O)c3c(F)cc(N4CCO[C@@H](C)[C@H]4C(F)(F)F)cc3F)C(=O)O)c3cccnc23)c(=O)n1C` [Example 227] reads 1.1 nM; that for `CC[C@@H](Nc1cc(F)c(C(=O)N[C@@H](Cc2ccc(-c3ncc(C)cc3C(F)(F)F)c3ncccc23)C(=O)O)c(F)c1)C(F)(F)F` [Example 310], 12.3 nM; that for `C[C@@H](Nc1cc(F)c(C(=O)N[C@@H](Cc2ccc(-c3ncccc3C(F)(F)F)c3ncccc23)C(=O)O)c(F)c1)C(F)(F)F` [Example 283], 5.7 nM.
The molecule `N#Cc1ccc(-c2ccc(C[C@H](NC(=O)c3c(F)cc(NC4(C(F)(F)F)CC4)cc3F)C(=O)O)c3cccnc23)c(Cl)c1` [Example 229] displayed an EC50 of 60.5 nM.
Still for that read-out and setting: the figure for `Cc1cc(C(F)(F)F)c(-c2ccc(C[C@H](NC(=O)c3c(F)cc(N4C[C@@H](C)OC[C@H]4C)cc3F)C(=O)O)c3cccnc23)c(=O)n1C` [Example 249] is 3 nM; for `O=C(N[C@@H](Cc1ccc(-c2ncc3ccc(C4CC4)cc3c2C(F)(F)F)c2ncccc12)C(=O)O)c1c(Cl)cccc1Cl` [Example 319] it is 14.4 nM.
The same measure, in the same setting: the figure for `O=C(N[C@@H](Cc1ccc(-c2nccc(C(F)(F)F)n2)c2ncccc12)C(=O)O)c1c(F)cc(N2CCOC[C@@H]2C(F)(F)F)cc1F` [Example 189] is 15.1 nM; for `O=C(N[C@@H](Cc1ccc(Oc2nccc3ccccc23)c2ncccc12)C(=O)O)c1c(Cl)cccc1Cl` [Example 157] it is 44 nM.
